From patent US12673933B2, “Aminopyrazine compounds as HPK1 inhibitor and the use thereof” (BEIGENE, LTD., priority 2019, dated 2026)

Each compound was assayed against T1, HPK1 kinase (aa1-346, Life Technologies) (Homo sapiens, UniProt Q92918) (assay: HPK Kinase Activity Assay at 1 mM ATP (TR-FRET)). Details: HPK1 kinase 40 nM, 0.5 μM STK1 substrate, read-out: Enzymatic activity IC50.
T1 construct: HPK1 kinase (aa1-346, Life Technologies); purchased Life Technologies
T1 sequence (Q92918 1-346): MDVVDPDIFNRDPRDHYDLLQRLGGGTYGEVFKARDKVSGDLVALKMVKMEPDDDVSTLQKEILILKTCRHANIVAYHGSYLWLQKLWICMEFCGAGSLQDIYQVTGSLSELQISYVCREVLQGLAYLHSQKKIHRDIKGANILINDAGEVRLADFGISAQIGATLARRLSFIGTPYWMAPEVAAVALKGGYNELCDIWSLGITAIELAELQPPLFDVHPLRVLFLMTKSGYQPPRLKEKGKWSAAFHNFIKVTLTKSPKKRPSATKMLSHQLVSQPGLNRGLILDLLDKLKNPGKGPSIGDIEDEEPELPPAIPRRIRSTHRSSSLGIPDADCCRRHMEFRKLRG
Assay type: biochemical
Method: HPK Kinase Activity Assay at 1 mM ATP
Compounds disclosed herein were tested for inhibition of HPK1 kinase (aa1-346, Life Technologies) activity in assays based on the time-resolved fluorescence-resonance energy transfer (TR-FRET) methodology. The assays were carried out in 384-well low volume black plates in a reaction mixture containing HPK1 kinase (40 nM), 1 mM ATP, 0.5 μM STK1 substrate and 0-10 μM compound in buffer containing 50 mM HEPES, 0.01% BSA, 0.1 mM Orthovanadate, 10 mM MgCl2, 1 mM DTT, pH=7.0, 0.005% Tween-20. The kinase was incubated with the compounds disclosed herein or DMSO for 60 minutes at room temperature and the reaction was initiated by the addition of ATP and STK1 substrate. After reaction at room temperature for 120 minutes, an equal volume of stop/detection solution was added according to the manufacture's instruction (CisBio). The stop/detection solution contained STK Antibody-Cryptate and XL665-conjugated streptavidin in Detection Buffer. The TR-FRET signals (ratio of fluorescence emission at 665 nm over emission at 620 nm with excitation at 337 nm wavelength) were recorded on a PHERAstar FS plate reader (BMG Labtech). Phosphorylation of STK1 substrate led to the binding of STK Antibody-Cryptate to the biotinylated STK1 substrate, which places fluorescent donor (Eu^3+ crypate) in close proximity to the accepter (Streptavidin-XL665), thus resulting in a high degree of fluorescence resonance energy transfer. The inhibition of HPK1 in presence of increasing concentrations of compounds was calculated based on the ratio of fluorescence at 665 nm to that at 620 nm. The IC50 for each compound was derived from fitting the data to the four-parameter logistic equation by Graphpad Prism software.

Point of comparison: `Cc1cc(-c2cnc(N)c(Oc3cnn([C@H]4CC[C@@](C)(O)CC4)c3)n2)cc2c1CN(C)CC2` [Example 312, (1s,4s)-4-(4-(3-amino-6-(2,8-dimethyl-1,2,3,4-tetrahydroisoquinolin-6-yl)pyrazin-2-yloxy)-1H-pyrazol-1-yl)-1-methylcyclohexanol], IC50 63 nM. Against it:
- Cc1cc(-c2cnc(N)c(-n3ncc4cc(CO)ccc43)n2)cc2c1CCN(C)C2 [Example 4, (1-(3-amino-6-(2,5-dimethyl-1,2,3,4-tetrahydroisoquinolin-7-yl)pyrazin-2-yl)-1H-indazol-5-yl)methanol] — within 1.5-fold, 75 nM
- Cc1cc(-c2cnc(N)c(Oc3cnn(CC4CCOCC4)c3)n2)cc2c1CCN(C)C2 [Example 293, 5-(2,5-dimethyl-1,2,3,4-tetrahydroisoquinolin-7-yl)-3-(1-((tetrahydro-2H-pyran-4-yl)methyl)-1H-pyrazol-4-yloxy)pyrazin-2-amine] — 1.7-fold lower, 37 nM
- Cc1cc(-c2cnc(N)c(-n3cc(C(=O)NCCN4CCOCC4)cn3)n2)cc2c1CCN(C)C2 [Example 299, 1-(3-amino-6-(2,5-dimethyl-1,2,3,4-tetrahydroisoquinolin-7-yl)pyrazin-2-yl)-N-(2-morpholinoethyl)-1H-pyrazole-4-carboxamide] — 7.1-fold lower, 8.9 nM
- CNCCN(C)C(=O)c1cnn(-c2nc(-c3cc(C)c4c(c3)CN(C)CC4)cnc2N)c1 [Example 279, 1-(3-amino-6-(2,5-dimethyl-1,2,3,4-tetrahydroisoquinolin-7-yl)pyrazin-2-yl)-N-methyl-N-(2-(methylamino)ethyl)-1H-pyrazole-4-carboxamide] — 3.3-fold lower, 19 nM
- Cc1cc(-c2cnc(N)c(OCc3ccncc3F)n2)cc2c1CCN(C)C2 [Example 8, 5-(2,5-dimethyl-1,2,3,4-tetrahydroisoquinolin-7-yl)-3-((3-fluoropyridin-4-yl)methoxy)pyrazin-2-amine] — within 1.5-fold, 46 nM
- Cc1cc(-c2cnc(N)c(OC3CCCc4cnccc43)n2)cc2c1CCN(C)C2 (stereo not shown) [Example 26, 5-(2,5-dimethyl-1,2,3,4-tetrahydroisoquinolin-7-yl)-3-(5,6,7,8-tetrahydroisoquinolin-5-yloxy)pyrazin-2-amine] — 1.8-fold higher, 113 nM
- Cc1cc(-c2cnc(N)c(OCc3cc(N)nc(N)c3)n2)cc2c1CCN(C)C2 [Example 222, 4-((3-amino-6-(2,5-dimethyl-1,2,3,4-tetrahydroisoquinolin-7-yl)pyrazin-2-yloxy)methyl)pyridine-2,6-diamine] — 16-fold lower, 4 nM
- Cc1cc(-c2cnc(N)c(Oc3cnn(C(C)C)c3)n2)cc2c1CN(C)CC2 [Example 242, 5-(2,8-dimethyl-1,2,3,4-tetrahydroisoquinolin-6-yl)-3-(1-isopropyl-1H-pyrazol-4-yloxy)pyrazin-2-amine] — within 1.5-fold, 54 nM
- Cc1cc(-c2cnc(N)c(O[C@H](C)c3c(Cl)ccc(C(=O)NC4CC4)c3Cl)n2)cc2c1CCN(C)C2 [Example 47A, (R)-3-(1-(3-amino-6-(2,5-dimethyl-1,2,3,4-tetrahydroisoquinolin-7-yl)pyrazin-2-yloxy)ethyl)-2,4-dichloro-N-cyclopropylbenzamide] — within 1.5-fold, 47 nM
- Cc1cc(-c2cnc(N)c(OCc3ccncc3OC(C)C)n2)cc2c1CCN(C)C2 [Example 30, 5-(2,5-dimethyl-1,2,3,4-tetrahydroisoquinolin-7-yl)-3-((3-isopropoxypyridin-4-yl)methoxy)pyrazin-2-amine] — 8.3-fold lower, 7.6 nM
- Cc1cc(-c2cnc(N)c(-n3cc(C(=O)N4CCN(C)CC4)cn3)n2)cc2c1CCN(C)C2 [Example 284, (1-(3-amino-6-(2,5-dimethyl-1,2,3,4-tetrahydroisoquinolin-7-yl)pyrazin-2-yl)-1H-pyrazol-4-yl)(4-methylpiperazin-1-yl)methanone] — 1.7-fold lower, 38 nM
- Cc1cc(-c2cnc(N)c(-n3cc4cc(CO)ccc4n3)n2)cc2c1CCN(C)C2 [Example 5, (2-(3-amino-6-(2,5-dimethyl-1,2,3,4-tetrahydroisoquinolin-7-yl)pyrazin-2-yl)-2H-indazol-5-yl)methanol] — 2.7-fold higher, 172 nM
- Cc1cc(-c2cnc(N)c(Oc3cnn(C4CCN(C)C4)c3)n2)cc2c1CCN(C)C2 (single isomer, unassigned) [Example 280B] — within 1.5-fold, 51 nM
- Cc1cc(-c2cnc(N)c(OCc3ccnc(C#CC4CC4)c3)n2)cc2c1CCN(C)C2 [Example 11, 3-((2-(cyclopropylethynyl)pyridin-4-yl)methoxy)-5-(2,5-dimethyl-1,2,3,4-tetrahydroisoquinolin-7-yl)pyrazin-2-amine] — within 1.5-fold, 50 nM
- Cc1cc(-c2cnc(N)c(OCc3ccnc(C#CC(C)(C)O)c3)n2)cc2c1CCN(C)C2 [Example 14, 4-(4-(((3-amino-6-(2,5-dimethyl-1,2,3,4-tetrahydroisoquinolin-7-yl)pyrazin-2-yl)oxy)methyl)pyridin-2-yl)-2-methylbut-3-yn-2-ol] — 6.7-fold lower, 9.4 nM
- CCn1cc(Oc2nc(-c3cc4c(c(OC)c3)CCN(C)C4)cnc2N)cn1 [Example 274, 3-(1-ethyl-1H-pyrazol-4-yloxy)-5-(5-methoxy-2-methyl-1,2,3,4-tetrahydroisoquinolin-7-yl)pyrazin-2-amine] — 2.6-fold lower, 24 nM
- Cc1cc(-c2cnc(N)c(OC3CCc4cnccc43)n2)cc2c1CCN(C)C2 (stereo not shown) [Example 13, 3-(6,7-dihydro-5H-cyclopenta[c]pyridin-5-yloxy)-5-(2,5-dimethyl-1,2,3,4-tetrahydroisoquinolin-7-yl)pyrazin-2-amine] — within 1.5-fold, 62 nM
- Cc1cc(-c2cnc(N)c(Oc3cnn(C4CN(S(=O)(=O)c5ccccc5)C4)c3)n2)cc2c1CCN(C)C2 [Example 296, 5-(2,5-dimethyl-1,2,3,4-tetrahydroisoquinolin-7-yl)-3-(1-(1-(phenylsulfonyl)azetidin-3-yl)-1H-pyrazol-4-yloxy)pyrazin-2-amine] — within 1.5-fold, 67 nM
- Cc1cc(-c2cnc(N)c(-n3cc(C(=O)NCC4CC4)cn3)n2)cc2c1CCN(C)C2 [Example 297, 1-(3-amino-6-(2,5-dimethyl-1,2,3,4-tetrahydroisoquinolin-7-yl)pyrazin-2-yl)-N-(cyclopropylmethyl)-1H-pyrazole-4-carboxamide] — 9.5-fold lower, 6.6 nM
- Cc1cc(-c2cnc(N)c(-n3cc(C(=O)N4CCC(F)(F)C4)cn3)n2)cc2c1CCN(C)C2 [Example 281, (1-(3-amino-6-(2,5-dimethyl-1,2,3,4-tetrahydroisoquinolin-7-yl)pyrazin-2-yl)-1H pyrazol-4-yl)(3,3-difluoropyrrolidin-1-yl)methanone] — within 1.5-fold, 56 nM
- Cc1cc(-c2cnc(N)c(Oc3cnn(C(C)(C)CC#N)c3)n2)cc2c1CCN(C)C2 [Example 313, 3-(4-(3-amino-6-(2,5-dimethyl-1,2,3,4-tetrahydroisoquinolin-7-yl)pyrazin-2-yloxy)-1H-pyrazol-1-yl)-3-methylbutanenitrile] — 7.6-fold lower, 8.3 nM
- Cc1cc(-c2cnc(N)c(OCc3ccnc(C#Cc4ccncc4)c3)n2)cc2c1CCN(C)C2 [Example 23, 5-(2,5-dimethyl-1,2,3,4-tetrahydroisoquinolin-7-yl)-3-((2-(pyridin-4-ylethynyl)pyridin-4-yl)methoxy)pyrazin-2-amine] — 2.2-fold higher, 137 nM
- Cc1cc(-c2cnc(N)c(OCc3ccnc(N)c3C)n2)cc2c1CCN(C)C2 [Example 29, 3-((2-amino-3-methylpyridin-4-yl)methoxy)-5-(2,5-dimethyl-1,2,3,4-tetrahydroisoquinolin-7-yl)pyrazin-2-amine] — 3.9-fold lower, 16 nM
- Cc1cc(-c2cnc(N)c(OCc3ccncc3OC3CC3)n2)cc2c1CCN(C)C2 [Example 149, 3-((3-cyclopropoxypyridin-4-yl)methoxy)-5-(2,5-dimethyl-1,2,3,4-tetrahydroisoquinolin-7-yl)pyrazin-2-amine] — 3.9-fold lower, 16 nM
- CCS(=O)(=O)N1CC(n2cc(Oc3nc(-c4cc(C)c5c(c4)CN(C)CC5)cnc3N)cn2)C1 [Example 295, 5-(2,5-dimethyl-1,2,3,4-tetrahydroisoquinolin-7-yl)-3-(1-(1-(ethylsulfonyl)azetidin-3-yl)-1H-pyrazol-4-yloxy)pyrazin-2-amine] — 1.8-fold lower, 36 nM
- Cc1cc(-c2cnc(N)c(OCc3ccnc(N)c3)n2)cc2c1CN(C)CC2 [Example 31, 3-((2-aminopyridin-4-yl)methoxy)-5-(2,8-dimethyl-1,2,3,4-tetrahydroisoquinolin-6-yl)pyrazin-2-amine] — 2.5-fold lower, 25 nM
- Cc1cc(-c2cnc(N)c(Oc3cnn([C@H]4C[C@H](C#N)C4)c3)n2)cc2c1CCN(C)C2 [Example 315, (1r,3r)-3-(4-((3-amino-6-(2,5-dimethyl-1,2,3,4-tetrahydroisoquinolin-7-yl)pyrazin-2-yl)oxy)-1H-pyrazol-1-yl)cyclobutane-1-carbonitrile] — 1.9-fold lower, 33 nM
